Source: patent publication US20140066438A1, “DOPAMINE RECEPTOR D2 ANTAGONIST FOR PREVENTION AND TREATMENT OF FLAVIVIRUS INFECTION” (Academia Sinica, priority 2012, published 2014)
pEC50: −log10 of the molar value. Like-named read-outs stand apart in the source and are kept apart here.

Experiments:
[1] = test system: clathrin-dependent endocytosis; details: cited from earlier work
[2] = test system: clathrin; experiment: Clathrin distribution during viral entry assay (confocal imaging); format: cell-based, human; details: HEK293 cells, PCZ 20 and 30 μM, compared to solvent-treated cells
Description: Cells were fixed with 4% PFA and permeabilized with 0.5% Triton X-100 in PBS. After a blocking with 5% skim milk in PBS, DENV protein expression was detected in cells incubated with mouse anti-DENV-2 NS3 antibody (49), then Alexa Fluor-488-conjugated anti-mouse secondary antibody (Molecular Probes) for 1 h at room temperature. The nuclei were stained with DAPI or Hoechst (Molecular Probes). Cells were examined under an inverted fluorescence microscope (Olympus 1X71). For confocal microcopy, cells were seeded on coverslips in 24-well culture plates. After virus absorption and treatment, cells were extensively washed with cold washing buffer and PBS, then fixed with cold 4% PFA. Cells were washed twice with cold 10 mM glycine solution, then PBS. For clathrin staining, cells were permeabilized with 0.5% Triton X-100 in PBS and blocked with 5% BSA in PBS. Cells were stained with mouse anti-clathrin heavy chain (X22) (Pierce, MA1-065), then anti-mouse Alexa Fluor-568-conjugated secondary antibody (Molecular Probes). The coverslip was mounted onto a slide and examined under confocal laser scanning microscope (ZEISS LSM 700).

[3] = test system: HCV; details: cell-based screening; cited from earlier work
[4] = test system: DENV-2; experiment: Virus binding assay (confocal microscopy, plaque-forming assay of cell-bound virus)
[5] = test system: DENV-2; experiment: Cell-based antiviral assay against DENV-2 (IFA, immunoblotting of NS3, plaque-forming assay); design: species or system Dengue virus serotype 2 (PL046 strain); details: for pEC50: read-out: half-maximal effective concentration (EC50) against DENV-2 infection
Description: (A) PCZ cytotoxicity test. HEK293T cells were treated with solvent control or the indicated concentrations of PCZ for 24 h. AlamarBlue, XTT, and LDH assays were carried out to determine cell viability, cell proliferation, and cytotoxicity, respectively. Data are mean and standard deviation (SD) of 3 independent experiments. […] Representative immunofluorescence microscopy (400× magnification) of cells immunostained for DENV-2 NS3 (green) and DAPI for nuclei (blue). […] Plaque-forming assay of viral progeny production (plaque forming unit, PFU/ml) in culture supernatants of cells in panel C (D). Data are mean and SI) of 2 independent experiments. *P<0.05.
(A) PCZ cytotoxicity test. HEK293T cells were treated with solvent control or the indicated concentrations of PCZ (5, 10, 15, 20 and 25 μM). AlamarBlue, XTT and LDH assays were carried out to determine cell viability, cell proliferation, and cytotoxicity, respectively. […] (D) Plaque-forming assay of viral progeny production (plaque forming unit, PFU/ml): Data are mean and SD of two independent experiments. **P<0.01. […] BHK-21 cells (E) and N18 cells (F) infected with DENV-2 (MOI=0.1) were treated with or without PCZ for 2 days and 1 day, respectively.
HEK293T cells were infected with DENV-2 (MOI=0.1) with or without haloperidol for 1 day.
Monolayers of cells (HEK293T, BHK-21 and N18) in 6- or 12-well plates were infected with DENV-2 at the indicated multiplicity of infection (MOI). Virus was adsorbed for 2 h with the indicated concentrations of PCZ, then cells were washed thoroughly to remove unbound viruses and incubated for an additional 24 to 48 h with or without PCZ. The antiviral effect of PCZ was evaluated by immunofluorescence assay (IFA), immunoblotting and plaque-forming assay.
Cells were fixed with 4% PFA and permeabilized with 0.5% Triton X-100 in PBS.

[6] = test system: DENV-2 replicon; experiment: DENV-2 replicon dual luciferase assay; format: cell-based, Dengue virus serotype 2; details: HEK293T, PCZ 10 μM applied 5 h post-transfection
Description: DENV-2 replicon was constructed to contain the SP6 promoter upstream of a Renilla luciferase gene flanked by the DENV 5′ UTR plus a portion of the core gene in the 5′ end; portions of the envelope gene, full length of non-structural genes and 3′ UTR in the 3′ end. In vitro transcription was performed to generate the replicon RNA. HEK293T cells were co-transfected with replicon RNA and control firefly luciferase RNA. PCZ (10 μM) was applied to the transfected cells at 5 h post-transfection. Cells were then harvested at the indicated times for dual luciferase assays. Data are mean and SD of relative renilla luciferase to firefly luciferase from two independent experiments.

[7] = test system: DENV-2; experiment: Virus entry assay (confocal microscopy, plaque-forming assay of internalized virus); format: cell-based, Dengue virus serotype 2
Description: Solvent control or PCZ (15 and 20 μM) was added 15 min before the end of virus adsorption. After a washing with PBS, cells were then shifted to 37° C. for an additional 1 h incubation. Live-cell staining was performed before cell fixation to label the cell membrane with CellMask (red) and nuclei with Hoechst (blue). […] (B) Plaque-forming assay of internalized DENV-2. […] After a washing with PBS, cells were shifted to 37° C. for an additional 1 h. Cells were physically destroyed to release the internalized DENV-2 and internalized virus was quantified by plaque-forming assays.
At 15 min before the end of virus adsorption, PCZ was added to the cell cultures. Cells were gently washed once with cold PBS, then were shifted to a 37° C. CO2 incubator for an additional 1 h to allow virus entry with or without PCZ. […] Cells were washed 3 times with cold washing buffer and once with cold PBS, then were fixed with 4% PFA for 10 min on ice. […] Level of virus titers was determined by plaque-forming assay.

[8] = test system: DENV-2 NGC-N strain; experiment: Animal study: DENV-2 challenge of Stat1-deficient mice; format: in vivo
Description: Stat1^−/− mice were challenged with 5×10^4 PFU/mouse of DENV-2 NGC-N strain. The protective effect of PCZ dimaleate (A) and PCZ dimethanesulfonate (Novamin Injection) (B) were tested with immediate and 6-h delay treatment. (A) The mice received phosphate buffered saline (PBS; vehicle control, n=10), 5 mg (n=8) or 1 mg (n=8) PCZ-dimaleate/kg body weight/i.p. at the time of infection (immediate treatment), or 5 mg PCZ-dimaleate/kg body weight/i.p. at 6 h post-infection (6-h delay treatment, n=8). Mice received follow-up treatment with PBS (vehicle control) or half the dose of PCZ-dimaleate orally every 12 h until day-10 post infection. […] The days with treatment are marked by arrows. Mice survival was checked daily and the data are presented as percentage of survival.
The mouse experiments were approved and performed in accordance with the guidelines of the Academia Sinica Institutional Animal Care and Utilization Committee. Groups of 5-week-old Stat1-deficient (SaT1^−/−) mice were challenged intraperitoneally (i.p.) with 5×10^4 plaque-forming units (PFU)/mouse of DENV-2 NGC-N strain and simultaneously injected with 30 μl PBS intracranially (i.c.) into the right hemisphere of the brain. To study the efficacy of PCZ-dimaleate administered mainly by an oral route, mice were divided into 4 groups for treatment: PBS (vehicle control); 5 or 1 mg of PCZ/kg body weight/i.p. at the time of infection (immediate treatment); or 5 mg of PCZ/kg body weight/i.p. at 6 h post-infection (6-h delay treatment). Thereafter, twice a day, mice received a half dose of the first treatment orally with PBS (vehicle control) or 2.5 or 0.5 mg of PCZ/kg body weight/oral/12 h up to day 10 post-infection. […] Thereafter, every 2 days, mice received PBS or the same dose of PCZ up to day 10 post-infection. The mice were checked daily for mortality.

[9] = mice, cited from earlier work
[10] = test system: DENV-2; experiment: D2R dependence of PCZ inhibition of DENV-2 binding in N18, shLacZ-N18 and shD2R-N18 cells (NS3 Western blot); format: cell-based, Dengue virus serotype 2
Description: The lentivirus vector pLKO.1 carrying a short hairpin RNA (shRNA) targeting the mouse dopamine D2 receptor (5′-[…]-3′, SEQ ID NO: 1) or LacZ (5′-[…]-3′, SEQ ID NO: 2) from the Taiwan National RNAi Core Facility was cotransfected with pMD.G and pCMVΔR8.91 into HEK293T cells by use of Lipofectamine 2000 (INVITROGEN™). The lentiviruses were harvested from culture supernatants and concentrated by ultracentrifugation at 35,000 rpm in a Beckman SW41 rotor for 3.5 h at 4° C. The viral pellets were resuspended and used to transduce N18 cells. The D2R-deficient N18 cells (shD2R-N18) and LacZ-control cells (shLacZ-N18) were selected with puromycin (5 μg/ml).

[11] = test system: DENV-1; experiment: Antiviral assay against DENV-1 (NS3 Western blot); details: HEK293T, MOI=0.1, 2 days
[12] = molecular target: mouse dopamine D2 receptor (mouse) (UniProt P61168)
[13] = test system: Japanese encephalitis virus (JEV); experiment: Antiviral assay against JEV (NS3 Western blot); format: cell-based; details: BHK-21 cells, MOI=0.1, 2 days
[14] = 2 mg PCZ/kg body weight/2 days i.p., immediate treatment

Sequence of mouse dopamine D2 receptor (mouse) (P61168 other isoform, or with tags, fused parts or gaps): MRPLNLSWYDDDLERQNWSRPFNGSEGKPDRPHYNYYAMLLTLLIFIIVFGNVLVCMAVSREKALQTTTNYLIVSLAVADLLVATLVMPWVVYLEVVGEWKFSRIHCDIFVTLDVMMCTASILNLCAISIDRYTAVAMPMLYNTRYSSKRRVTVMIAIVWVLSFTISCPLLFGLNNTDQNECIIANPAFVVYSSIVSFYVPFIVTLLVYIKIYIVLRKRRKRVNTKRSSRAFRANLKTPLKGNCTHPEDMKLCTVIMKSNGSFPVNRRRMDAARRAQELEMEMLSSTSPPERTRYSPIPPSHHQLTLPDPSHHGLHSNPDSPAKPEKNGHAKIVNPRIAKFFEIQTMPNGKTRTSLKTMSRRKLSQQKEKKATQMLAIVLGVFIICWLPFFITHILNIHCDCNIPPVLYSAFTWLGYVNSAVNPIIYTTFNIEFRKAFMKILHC

CN(C)CCCN1c2ccccc2Sc2ccc(Cl)cc21 [Chlorpromazine]
clathrin-dependent endocytosis [1]: inhibits clathrin-dependent endocytosis

CN1CCN(CCCN2c3ccccc3Sc3ccc(Cl)cc32)CC1 [PCZ, prochlorperazine]
cellular clathrin distribution [2]: showed a distinct clathrin distribution | anti-HCV activity [3]: showed anti-HCV activity | DENV-2 binding quantified by plaque forming assay ([4]; A549 cells, MOI=5): dose-dependently reduced | levels of DENV-2 bound to the cell surface (confocal imaging) ([4]; HEK293T, PCZ 1 h before and during virus adsorption at 4° C.): reduced the levels of DENV-2 bound to the cell surface | pEC50 ([5]; Dengue virus, DENV2, HEK-293T): 7.05 | relative renilla luciferase to firefly luciferase (DENV-2 translation and RNA replication) [6]: No significant difference | levels of DENV-2 internalization quantified by plaque forming assay ([7]; BHK-21 cells, MOI=5): significantly reduced | amounts of DENV-2 in the intracellular compartment (confocal microscopy) ([7]; HEK293T, PCZ 15 and 20 μM, 1 h at 37° C.): greatly reduced | protection of DENV-2 challenge mice ([8]; oral administration at 5 μg/gram body weight daily): completely protected | LD50 ([9]; i.p. injection): 191 mg/kg body weight | LD50 ([9]; oral route): 400 mg/kg body weight | antiviral effect of PCZ given during binding (NS3) ([10]; N18 cells): noted | antiviral effect of PCZ given during binding (NS3) ([10]; shD2R-N18 cells (D2R-deficient)): not | antiviral effect of PCZ given during binding (NS3) ([10]; shLacZ-N18 cells (control knockdown)): noted

O=C(CCCN1CCC(O)(c2ccc(Cl)cc2)CC1)c1ccc(F)cc1 [haloperidol]
antiviral activity against DENV-2 infection (NS3 Western blot) ([5]; HEK293T, MOI=0.1, 1 day): showed antiviral activity against DENV-2 infection

prochlorperazine dimethanesulfonate [PCZ-Novamin]
DENV-1 replication (NS3 Western blot) [11]: reduced DENV-1 replication | protein expression of viral NS3 ([5]; DENV-2-infected HEK293T cells, IFA and Western blot): dose-dependently reduced | pEC50 ([5]; HEK293T cells, calculated by a published method): 7.05 | viral progeny production by plaque-forming assay ([5]; HEK293T, DENV-2 MOI=1, 24 h): significantly reduced viral progeny production | DENV-2-induced lethality timing [8, 14]: slightly delayed | overall survival [8, 14]: 20% | protection against DENV-2 challenge after 10 days of infection ([8]; 4 mg PCZ/kg body weight/2 days i.p., immediate treatment): completely protected | overall survival ([8]; 4 mg PCZ/kg/2 days i.p., immediate treatment): 40% | overall survival and mortality timing ([8]; 4 mg kg body weight/2 days i.p., from 6 h post-infection): did not improve the overall survival but delayed the mortality | mice surviving the DENV-2 challenge ([8]; 8 mg PCZ/kg body weight/2 days i.p., from 6 h post-infection): 40% | protection against DENV-2 challenge after 10 days of infection ([8]; 8 mg PCZ/kg body weight/2 days i.p., immediate treatment): completely protected | state of mice after treatment stopped at day 10 post-infection ([8]; 8 mg PCZ/kg/2 days i.p., immediate treatment): remained healthy

DENV-2 PL046 strain (dengue virus serotype 2), whole virion
fold lower cell-bound virus on D2R-knockdown cells than on controls [12]: 6 times

CN1CCN(CCCN2c3ccccc3Sc3ccc(Cl)cc32)CC1 [PCZ-dimaleate, Prochlorperazine dimaleate]
JEV infection (NS3 Western blot) [13]: inhibits Japanese encephalitis virus (JEV) infection | antiviral effect against DENV-2 infection (NS3 Western blot) ([5]; BHK-21 cells, MOI=0.1, 2 days): shows antiviral effect against DENV-2 infection | antiviral activity against DENV-2 infection ([5]; HEK293T, MOI=0.1, PCZ 5, 10 and 15 μM, 2 days): exhibits antiviral activity against DENV-2 infection | antiviral effect against DENV-2 infection (NS3 Western blot) ([5]; N18 cells, MOI=0.1, 1 day): shows antiviral effect against DENV-2 infection | animal mortality timing ([8]; 1 mg PCZ/kg body weight/day, immediate treatment): delayed animal mortality | overall animal survival ([8]; 1 mg PCZ/kg body weight/day, immediate treatment, first i.p. then oral): 50% | death timing ([8]; 5 mg PCZ/kg body weight, 6-h delay treatment): delayed death | overall survival ([8]; 5 mg PCZ/kg body weight, 6-h delay treatment, 10 days): 50% | protection against death ([8]; 5 mg/kg body weight/day, immediate treatment, first i.p. then oral, 10 days): completely protected against death
